{"source": "patent US10378034B2", "about": "“Use of a N-acetylneuraminate lyase derived from the bacterium Aliivibrio salmonicida in the production of neuraminic acid and derivatives thereof” (Universitetet i Tromsø-Norges Arktiske Universitet, priority 2014, dated 2019)", "molecules": {"B1": {"name": "EcNAL: commercially available N-acetylneuraminate lyase from E. coli (Sigma) (protein, UniProt P0A6L4 2-297, looked up)", "N-acetylneuraminate lyase": "ATNLRGVMAALLTPFDQQQALDKASLRRLVQFNIQQGIDGLYVGGSTGEAFVQSLSEREQVLEIVAEEAKGKIKLIAHVGCVSTAESQQLAASAKRYGFDAVSAVTPFYYPFSFEEHCDHYRAIIDSADGLPMVVYNIPALSGVKLTLDQINTLVTLPGVGALKQTSGDLYQMEQIRREHPDLVLYNGYDEIFASGLLAGADGGIGSTYNIMGWRYQGIVKALKEGDIQTAQKLQTECNKVIDLLIKTGVFRGLKTVLHYMDVVSVPLCRKPFGPVDEKYLPELKALAQQLMQERG"}}, "key": {"AsNAL [1]": {"system": "AsNAL", "assay": "Production of Neu5,7Ac2/Neu5,8Ac2/Neu5,9Ac2 and legionaminic acid by AsNAL (DMB-HPLC-MS)", "type": "biochemical, Aliivibrio salmonicida", "conditions": "for 468.1613@3.56 Area (Neu5,7Ac2) / 468.1613@4.05 Area (Neu5,8Ac2) / 468.1613@4.4 Area (Neu5,9Ac2) / RT 3.29 (Area), legionaminic acid: 15 mM substrate, 15 mM pyruvate, 28 μg AsNAL, HEPES pH 8.0", "description": "15 mM of 4-O-acetyl-2-N-acetylmannosamine (4-OAc-ManNAc) or 2,4-diacetamino-2,4,6-trideoxymannose, 15 mM of pyruvate, 28 μg of enzyme (AsNAL), 124 mM HEPES buffer, pH 8.0 and dH2O were mixed in a tube to a total volume of 200 μl. Aliquots were sampled after 1.0, 1.5 and 4.0 h for production of di-acetylated Neus. For production of Legionaminic acid aliquots were sampled after 1.0 and 3.0 h. Reactions were terminated by addition of 2 μl concentrated H2SO4. Samples were passed over Amicon Ultra spin-columns with a 10000 molecular weight cut-off (Millipore) to remove high molecular weight compounds. The low molecular weight fractions were then used in DMB-HPLC coupled to mass spectrometric analyses. Derivatization of samples with DMB were performed according to protocol given by the supplier (Sialic Acid Fluorescence Labeling Kit, Takara Inc.). Reactions were carried out for 2.5 hours at 50° C. in the dark. A reference panel with a mixture of the Sias; Neu5Gc, Neu5Ac, Neu5,7Ac2, Neu5Gc9Ac, Neu5,9Ac2 and Neu5, (7/8)9Ac3 (ProZyme Inc.) were also subjected to derivatization with DMB. DMB-labeled sialic acids were separated by HPLC using Accela HPLC (Thermo Scientific) on a LTQ Orbitrap XL Fourier Transform Mass Spectrometer (FTMS) with an Electrospray ion source (Thermo Scientific) using a positive ion profile mode fullscan (+pESI). The column used was a Hypersil Gold 50×2.1 mm, 1.9 μm reversed-phase C18 column (Thermo scientific).). Elution was achieved using water with 0.1% formic acid (A) and acetonitrile with 0.1% formic acid (B) at a flow rate of 400 μl/min.\nThe analytical conditions were set to 300° C. for capillary temperature, 4.5 kV spray voltage, m/z 350-550 scan range and 35% collision energy. The MS/MS was targeted on the masses m/z 426.15, m/z 468.16 and m/z 451.18 using Ion trap MS (ITMS)+cESI with full MS2 in scan range m/z 125-480, corresponding to the DMB derivates DMB-Neu5Ac, DMB-di-acetylated Neu and DMB-Leg."}, "[2]": {"target": "Aliivibrio salmonicida LFI1238 N-acetylneuraminate lyase (AsNAL), wild type, SEQ ID NO: 1 (Aliivibrio salmonicida, UniProt B6EI04)", "assay": "LDH-coupled continuous assay, enzyme kinetics for the cleavage reaction of Neu5Ac (AsNAL)", "type": "biochemical", "conditions": "Neu5Ac 1-90 mM, 50 mM Tris-HCl pH 8.5, 37° C.", "description": "(§1) Further, the enzyme kinetics for the cleavage reactions were studied using a lactate dehydrogenase (LDH)-coupled continuous assay (Comb and Roseman, 1960; Wang and Lee, 2006). The incubation mixtures contained variable amounts (1, 5, 15, 30, 45, 60, 75 and 90 mM) of Neu5Ac, 50 mM Tris-HCl, pH 8.5, 0.15 mM NADH (Sigma), 4U LDH (Sigma) and 0.315 μg of NAL in final volumes of 200 μl. Components, except the enzyme, were mixed and incubated at 37° C. for 5 min before the reactions were started by adding the specific enzyme. The measurements were done in triplicates. The decrease in absorbance at 340 nm corresponding to the oxidation of NADH by LDH in presence of released pyruvate was measured spectrophotometrically using a Spectramax M2e Microplate reader. Initial velocities were calculated using the SoftMax Pro software (Molecular Devices) and subsequently fitted to the Michaelis-Menten equation using the program GraphPad Prism 5 (GraphPad Software Inc.). The kcat values were calculated using the formula Vmax/[Enzyme]. The relationship between absorbance and substrate concentration was calculated from a standard-curve obtained by measuring the maximum absorbance from various substrate concentrations. The relationship is given by the formula: y=0.0031x+0.0052, where x is the pyruvate concentration. By using this formula, values of Vmax were converted from mOD/min to μM/min. Enzyme concentrations were converted from mg/ml to molar using the calculated molecular mass of 32257.9 g/mol (monomeric protein).\n(§2) The AsNAL Michaelis constant (KM) is somewhat higher than the KM obtained for EcNAL. However, the turnover number, kcat, is strikingly higher than for EcNAL."}, "AsNAL [3]": {"system": "AsNAL", "assay": "Cleavage of Neu5Ac, Neu5Gc and KDN by AsNAL (TBA assay)", "type": "biochemical, Aliivibrio salmonicida", "conditions": "5 mM substrate, 6.6 μg AsNAL, HEPES pH 8.0, 1 h room temperature", "description": "The cleavage reaction of AsNAL contained 6.6 μg of AsNAL, 5 mM Neu5Gc or KDN and 124 mM HEPES buffer pH 8.0. For blank (H2O) and positive control the same components of the reactions were used, but the amount of enzyme was replaced by assay buffer. All reactions were filled up to a total volume of 50 μL with dH2O. The assay was performed in triplicate. After 1 h incubation at room temperature, the enzyme reaction was stopped by adding 2 μL concentrated H2SO4. The thiobarbituric acid (TBA) assay procedure was followed to determine the amount cleaved."}, "[4]": {"target": "T1, E. coli N-acetylneuraminate lyase (EcNAL), commercially available (Sigma) (Escherichia coli, UniProt P0A6L4)", "T1 sequence (P0A6L4 1-297)": "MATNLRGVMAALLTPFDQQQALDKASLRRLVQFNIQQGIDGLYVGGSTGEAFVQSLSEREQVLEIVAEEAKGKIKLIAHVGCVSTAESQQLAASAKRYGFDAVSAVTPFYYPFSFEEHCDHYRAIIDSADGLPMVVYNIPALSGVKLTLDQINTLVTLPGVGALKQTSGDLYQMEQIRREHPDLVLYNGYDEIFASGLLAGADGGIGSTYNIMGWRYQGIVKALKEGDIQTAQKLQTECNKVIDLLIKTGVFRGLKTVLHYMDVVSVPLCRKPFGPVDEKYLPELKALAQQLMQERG", "assay": "LDH-coupled continuous assay, enzyme kinetics for the cleavage reaction of Neu5Ac (EcNAL)", "type": "biochemical", "conditions": "Neu5Ac 1-90 mM, 50 mM Tris-HCl pH 8.5, 37° C.", "description": "as §1, with “The relationship is given by the formula: y=0.0031x+0.0052, where x is the pyruvate concentration. By using this formula, values of Vmax were converted from mOD/min to μM/min.” left out, “protein). […]” for “protein).”"}, "[5]": {"system": "CC(=O)N[C@H]1[C@H]([C@H](O)[C@H](O)CO)OC(O)(C(=O)O)C[C@@H]1O", "assay": "LDH-coupled continuous assay, enzyme kinetics for the cleavage reaction of Neu5Ac (AsNAL)", "type": "biochemical, Aliivibrio salmonicida", "conditions": "other: cleavage reaction, Neu5Ac 1-90 mM, 50 mM Tris-HCl pH 8.5, 37° C.", "description": "as §1, §2"}, "[6]": {"assay": "Integrated reaction: Neu5Ac production from GlcNAc and pyruvate at alkaline pH (TBA assay)", "type": "biochemical", "description": "For ManNAc reactions, the buffer used was HEPES, pH 8.0. […] Experiments were performed in triplicate. For ManNAc experiments, aliquots were sampled after 0.5, 1.0, 1.5, 2.5 and 4.0 h. For GlcNAc experiments, aliquots were sampled after 12, 24, 36, 48 and 72 h. Reactions were terminated by addition of 2 μl concentrated H2SO4. The time needed for N-acetylneuraminic acid (Neu5Ac) production to get started under these conditions was known to take longer time based on initial test experiments. The thiobarbituric acid (TBA) assay procedure was followed to determine the amount of Neu5Ac produced. The activity was corrected for a blank value. The blank contained all the reaction components except for enzyme.\nInitially, also glycine buffer was tested at pH 10.5 and pH 11.0 for the reactions with GlcNAc. GlcNAc will chemically epimerize to ManNAc at pH values above 9.0, which the enzyme will use as substrate for the production of Neu5Ac. The epimerization is pH dependent and will increase with increasing pH. Production of Neu5Ac was higher in CAPS buffer compared to glycine buffer, so this was chosen for further experiments."}}, "data": [{"molecule": "CC(=O)N[C@@H]1C(O)O[C@H](CO)[C@@H](OC(C)=O)[C@@H]1O", "note": "(stereo partly shown) [4OAc-ManNAc, 4-O-acetyl-2-N-acetylmannosamine]", "values": [{"measurement": "468.1613@3.56 Area (Neu5,7Ac2)", "setting": "AsNAL [1]; 1 hour", "result": 3258981}, {"measurement": "468.1613@4.05 Area (Neu5,8Ac2)", "setting": "AsNAL [1]; 1 hour", "result": 4611697}, {"measurement": "468.1613@4.4 Area (Neu5,9Ac2)", "setting": "AsNAL [1]; 1 hour", "result": 20834893}, {"measurement": "468.1613@3.56 Area (Neu5,7Ac2)", "setting": "AsNAL [1]; 1.5 hours", "result": 4048804}, {"measurement": "468.1613@4.05 Area (Neu5,8Ac2)", "setting": "AsNAL [1]; 1.5 hours", "result": 5467510}, {"measurement": "468.1613@4.4 Area (Neu5,9Ac2)", "setting": "AsNAL [1]; 1.5 hours", "result": 23706892}, {"measurement": "468.1613@3.56 Area (Neu5,7Ac2)", "setting": "AsNAL [1]; 4 hours", "result": 4484920}, {"measurement": "468.1613@4.05 Area (Neu5,8Ac2)", "setting": "AsNAL [1]; 4 hours", "result": 6019425}, {"measurement": "468.1613@4.4 Area (Neu5,9Ac2)", "setting": "AsNAL [1]; 4 hours", "result": 26500427}, {"measurement": "production of Neu5,9Ac2, Neu5,7Ac2 and Neu5,8Ac2 relative to ManNAc as a substrate", "setting": "AsNAL [1]; same conditions, pH 8.0, asNAL", "result": "30-40%"}]}, {"molecule": "CC(=O)N[C@H]1[C@H]([C@H](O)[C@H](O)CO)OC(O)(C(=O)O)C[C@@H]1O", "note": "(stereo partly shown) [Neu5Ac, N-acetylneuraminic acid]", "values": [{"measurement": "Vmax", "setting": "[2]", "result": "315.5 ± 18.5"}, {"measurement": "% cleaved", "setting": "AsNAL [3]", "result": 82.6, "unit": "%"}, {"measurement": "Cleaved (OD)", "setting": "AsNAL [3]", "result": "4.984 ± 0.016"}, {"measurement": "OD sample-blank (measures uncleaved substrate)", "setting": "AsNAL [3]", "result": "1.048 ± 0.016"}, {"measurement": "Vmax", "setting": "[4]", "result": "208.9 ± 16.7"}]}, {"molecule": "O=C(O)C(=O)C[C@H](O)[C@@H](O)[C@@H](O)[C@H](O)[C@H](O)CO", "note": "[KDN, 2-keto-3-deoxy-D-glycero-D-galacto-nononic acid]", "values": [{"measurement": "% cleaved", "setting": "AsNAL [3]", "result": 50.0, "unit": "%"}, {"measurement": "Cleaved (OD)", "setting": "AsNAL [3]", "result": "2.658 ± 0.130"}, {"measurement": "OD sample-blank (measures uncleaved substrate)", "setting": "AsNAL [3]", "result": "2.662 ± 0.130"}]}, {"molecule": "CC(=O)N[C@@H]([C@H](O)[C@@H](C=O)NC(C)=O)[C@@H](C)O", "note": "[2,4-diacetamino-2,4,6-trideoxymannose]", "values": [{"measurement": "RT 3.29 (Area), legionaminic acid", "setting": "AsNAL [1]; 1 h", "result": 902252}, {"measurement": "RT 3.29 (Area), legionaminic acid", "setting": "AsNAL [1]; 3 h", "result": 1663378}]}, {"molecule": "Aliivibrio salmonicida LFI1238 N-acetylneuraminate lyase (AsNAL), wild type, SEQ ID NO: 1 (Aliivibrio salmonicida LFI1238)", "values": [{"measurement": "Km", "setting": "[5]", "result": "53.88 ± 6.55", "unit": "mM"}, {"measurement": "kcat", "setting": "[5]", "result": 19.1, "unit": "s⁻¹"}, {"measurement": "kcat/Km", "setting": "[5]", "result": 354, "unit": "M⁻¹ s⁻¹"}]}, {"molecule": "O=C(CO)N[C@H]1[C@H]([C@H](O)[C@H](O)CO)OC(O)(C(=O)O)C[C@@H]1O", "note": "(stereo partly shown) [Neu5Gc, N-glycolylneuraminic acid]", "values": [{"measurement": "% cleaved", "setting": "AsNAL [3]", "result": 73.9, "unit": "%"}, {"measurement": "Cleaved (OD)", "setting": "AsNAL [3]", "result": "4.018 ± 0.076"}, {"measurement": "OD sample-blank (measures uncleaved substrate)", "setting": "AsNAL [3]", "result": "1.422 ± 0.076"}]}, {"molecule": "B1", "values": [{"measurement": "production of Neu5Ac (in words)", "setting": "[6]; pyruvate and GlcNAc 4:1, CAPS pH 11.0", "result": "low"}, {"measurement": "production of Neu5Ac (in words)", "setting": "[6]; pyruvate and GlcNAc, CAPS pH 11.5", "result": "no production was observed"}]}]}
